ChEMBL document CHEMBL1201862, “PubChem BioAssay data set” (2004)
The source made the active and inactive calls.

What was measured:
[1] = system: HEK293; assay: inhibitors of LMP1-driven NF-kB reporter, dose response, cell-based, HEK293, luciferase, cherry-pick (AID 588343); assay type: functional; details: Homo sapiens
[2] = target: Dual specificity tyrosine-phosphorylation-regulated kinase 1A (Rattus norvegicus, UniProt Q63470); assay type: biochemical, Homo sapiens
[3] = inhibitors of HIV Env-driven cell fusion, dose response, cherry-pick (AID 652057); assay type: functional, cell-based
[4] = ZM109 Env clade C HIV-1 fusion inhibitors, dose response, HeLa effector, CEM target cells, luciferase, cherry-pick (AID 652058); assay type: functional, cell-based
[5] = off-target signal loss in HeLa-CEM21 co-culture – HeLa F-luc CTL cells, cherry-picked, counter-screen for HIV-1 Env fusion inhibitor project, dose response (AID 652040); assay type: functional, cell-based;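 further: potency for signal decrease marking cytotoxic or nonspecific inhibition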
[6] = inhibitors of clade B AD8 Env fusion, dose response, cell-based, cherry-pick (AID 652062); assay type: functional;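 further: luciferase signal from cell-cell fusion driven by HIV-1 clade B AD8 Env; potency is for inhibitors of fusion seen as a drop in luminescence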
[7] = target: T1, Caspase-3 (Homo sapiens, UniProt P42574); assay type: functional;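 further: Dose-response selectivity test against caspase-3 for candidate inhibitors of sentrin-specific proteases (SENPs)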
T1 sequence (P42574 whole entry): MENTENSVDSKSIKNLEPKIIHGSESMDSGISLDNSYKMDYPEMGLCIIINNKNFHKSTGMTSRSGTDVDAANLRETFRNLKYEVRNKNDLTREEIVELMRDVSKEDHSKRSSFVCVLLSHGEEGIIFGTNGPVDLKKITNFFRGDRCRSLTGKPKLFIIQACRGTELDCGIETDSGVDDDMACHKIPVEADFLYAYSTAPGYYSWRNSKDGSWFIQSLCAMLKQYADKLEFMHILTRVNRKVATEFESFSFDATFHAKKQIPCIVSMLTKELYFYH

[8] = target: T2, Sentrin-specific protease 7 (Homo sapiens, UniProt Q9BQF6); assay type: functional;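 further: Luminescence-based dose-response confirmation of ultra-high-throughput screening hits, measuring inhibition of SENP7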
T2 sequence (Q9BQF6 whole entry): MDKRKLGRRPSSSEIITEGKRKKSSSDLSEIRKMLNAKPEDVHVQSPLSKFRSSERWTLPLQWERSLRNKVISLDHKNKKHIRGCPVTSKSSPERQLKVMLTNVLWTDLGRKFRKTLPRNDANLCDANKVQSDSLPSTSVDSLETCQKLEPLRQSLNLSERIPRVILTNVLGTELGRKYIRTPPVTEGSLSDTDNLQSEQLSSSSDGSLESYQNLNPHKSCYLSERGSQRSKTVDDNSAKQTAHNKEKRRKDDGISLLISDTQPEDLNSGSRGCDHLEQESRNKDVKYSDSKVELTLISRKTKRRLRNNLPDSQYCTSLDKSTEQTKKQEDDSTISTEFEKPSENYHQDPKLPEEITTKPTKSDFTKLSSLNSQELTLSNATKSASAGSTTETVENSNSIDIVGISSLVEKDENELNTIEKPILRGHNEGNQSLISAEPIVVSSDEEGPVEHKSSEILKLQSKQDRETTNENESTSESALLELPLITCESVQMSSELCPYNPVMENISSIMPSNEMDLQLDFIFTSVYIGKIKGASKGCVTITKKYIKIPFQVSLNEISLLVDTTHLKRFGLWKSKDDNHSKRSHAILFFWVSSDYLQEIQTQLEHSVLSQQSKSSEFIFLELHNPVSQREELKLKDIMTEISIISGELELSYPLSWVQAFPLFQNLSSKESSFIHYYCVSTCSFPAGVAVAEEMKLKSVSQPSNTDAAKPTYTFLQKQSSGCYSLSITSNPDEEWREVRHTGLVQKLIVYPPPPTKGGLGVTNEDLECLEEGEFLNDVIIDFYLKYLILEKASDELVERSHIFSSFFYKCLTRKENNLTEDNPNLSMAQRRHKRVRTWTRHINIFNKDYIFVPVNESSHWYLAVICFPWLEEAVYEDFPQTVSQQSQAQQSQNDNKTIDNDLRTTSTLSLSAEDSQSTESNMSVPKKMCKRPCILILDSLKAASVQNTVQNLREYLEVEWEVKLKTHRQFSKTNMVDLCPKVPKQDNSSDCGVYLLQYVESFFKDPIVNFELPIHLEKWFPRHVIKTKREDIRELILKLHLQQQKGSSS

[9] = target: T3, Sentrin-specific protease 6 (Homo sapiens, UniProt Q9GZR1); assay type: functional;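 further: Luminescence-based dose-response confirmatory assay of SENP6 inhibition, following up an ultra-high-throughput screen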
T3 sequence (Q9GZR1 whole entry): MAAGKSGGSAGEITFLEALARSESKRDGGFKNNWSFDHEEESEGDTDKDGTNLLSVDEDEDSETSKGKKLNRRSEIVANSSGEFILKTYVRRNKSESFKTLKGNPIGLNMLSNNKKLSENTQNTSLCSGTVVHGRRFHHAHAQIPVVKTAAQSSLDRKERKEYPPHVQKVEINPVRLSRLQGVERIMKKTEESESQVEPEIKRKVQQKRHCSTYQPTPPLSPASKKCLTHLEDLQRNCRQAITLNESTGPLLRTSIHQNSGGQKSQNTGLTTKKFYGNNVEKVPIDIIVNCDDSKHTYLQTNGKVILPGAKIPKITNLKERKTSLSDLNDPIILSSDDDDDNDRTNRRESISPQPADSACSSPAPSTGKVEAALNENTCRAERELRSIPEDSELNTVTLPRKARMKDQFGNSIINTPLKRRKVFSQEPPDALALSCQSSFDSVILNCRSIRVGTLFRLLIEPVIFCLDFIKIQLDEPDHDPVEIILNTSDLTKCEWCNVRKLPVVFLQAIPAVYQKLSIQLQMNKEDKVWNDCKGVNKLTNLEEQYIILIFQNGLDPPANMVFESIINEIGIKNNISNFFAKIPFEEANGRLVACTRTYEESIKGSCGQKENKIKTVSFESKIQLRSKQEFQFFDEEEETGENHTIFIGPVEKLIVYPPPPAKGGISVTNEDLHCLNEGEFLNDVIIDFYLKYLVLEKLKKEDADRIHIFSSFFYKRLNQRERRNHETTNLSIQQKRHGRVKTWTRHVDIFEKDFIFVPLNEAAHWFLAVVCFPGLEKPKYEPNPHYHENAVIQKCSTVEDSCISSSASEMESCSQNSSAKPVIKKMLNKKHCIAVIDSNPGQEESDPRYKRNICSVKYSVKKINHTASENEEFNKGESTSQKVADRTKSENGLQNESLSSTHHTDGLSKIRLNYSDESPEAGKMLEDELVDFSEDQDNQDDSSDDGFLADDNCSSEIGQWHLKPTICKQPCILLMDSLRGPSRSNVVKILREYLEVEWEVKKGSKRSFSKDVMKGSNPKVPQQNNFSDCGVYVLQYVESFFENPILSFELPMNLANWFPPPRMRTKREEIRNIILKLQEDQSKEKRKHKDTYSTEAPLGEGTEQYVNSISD

[10] = target: T4, Sentrin-specific protease 8 (Homo sapiens, UniProt Q96LD8); assay type: functional;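 further: luminescence read-out of SENP8 inhibition, dose-response confirmation following an ultra-high-throughput screen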
T4 sequence (Q96LD8 whole entry): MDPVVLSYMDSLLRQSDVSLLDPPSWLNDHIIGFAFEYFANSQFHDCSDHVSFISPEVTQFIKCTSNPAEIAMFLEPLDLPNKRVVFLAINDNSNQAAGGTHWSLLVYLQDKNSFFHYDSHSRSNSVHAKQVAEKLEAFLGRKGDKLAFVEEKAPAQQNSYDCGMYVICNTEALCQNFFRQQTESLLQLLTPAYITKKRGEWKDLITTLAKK

[11] = system: HeLa; assay: HeLa cell cytotoxicity, dose response, cytotoxicity control for MITF activator project, CellTiter-Glo luminescence, cherry-pick samples (AID 540259); assay type: functional, cell-based; details: Homo sapiens
[12] = target: T5, Rac GTPase-activating protein 1 (Homo sapiens, UniProt Q9H0H5); assay: MgcRacGAP GTPase-activating activity inhibitors, confirmation, biochemical, ADP Hunter fluorescence, primary and confirmatory (AID 624330); assay type: functional
T5 sequence (Q9H0H5 whole entry): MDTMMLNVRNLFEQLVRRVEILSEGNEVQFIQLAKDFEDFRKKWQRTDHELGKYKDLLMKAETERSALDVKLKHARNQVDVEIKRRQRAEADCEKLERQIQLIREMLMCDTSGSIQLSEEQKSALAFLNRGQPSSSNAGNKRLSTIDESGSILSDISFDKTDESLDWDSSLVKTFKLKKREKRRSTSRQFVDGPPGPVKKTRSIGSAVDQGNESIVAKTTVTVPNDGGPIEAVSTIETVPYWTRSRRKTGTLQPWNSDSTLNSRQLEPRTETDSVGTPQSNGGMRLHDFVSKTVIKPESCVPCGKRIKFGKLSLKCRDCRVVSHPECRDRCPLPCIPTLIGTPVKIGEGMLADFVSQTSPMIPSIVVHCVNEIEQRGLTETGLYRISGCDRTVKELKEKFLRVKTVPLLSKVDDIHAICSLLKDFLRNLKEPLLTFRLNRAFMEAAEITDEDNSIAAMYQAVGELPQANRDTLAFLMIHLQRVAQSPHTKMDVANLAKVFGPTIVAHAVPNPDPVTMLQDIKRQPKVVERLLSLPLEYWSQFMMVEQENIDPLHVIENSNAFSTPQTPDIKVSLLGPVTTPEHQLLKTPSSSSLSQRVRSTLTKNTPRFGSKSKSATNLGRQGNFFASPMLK

[13] = target: T6, Adenosylmethionine-8-amino-7-oxononanoate aminotransferase (Mycobacterium tuberculosis, UniProt P9WQ81); assay: Mycobacterium tuberculosis BioA enzyme inhibitor Measured in Biochemical System Using Plate Reader - 2163-02_Inhibitor_Dose_CherryPick_Activity.; assay type: functional, Mycobacterium tuberculosis UT205
T6 sequence (P9WQ81 whole entry): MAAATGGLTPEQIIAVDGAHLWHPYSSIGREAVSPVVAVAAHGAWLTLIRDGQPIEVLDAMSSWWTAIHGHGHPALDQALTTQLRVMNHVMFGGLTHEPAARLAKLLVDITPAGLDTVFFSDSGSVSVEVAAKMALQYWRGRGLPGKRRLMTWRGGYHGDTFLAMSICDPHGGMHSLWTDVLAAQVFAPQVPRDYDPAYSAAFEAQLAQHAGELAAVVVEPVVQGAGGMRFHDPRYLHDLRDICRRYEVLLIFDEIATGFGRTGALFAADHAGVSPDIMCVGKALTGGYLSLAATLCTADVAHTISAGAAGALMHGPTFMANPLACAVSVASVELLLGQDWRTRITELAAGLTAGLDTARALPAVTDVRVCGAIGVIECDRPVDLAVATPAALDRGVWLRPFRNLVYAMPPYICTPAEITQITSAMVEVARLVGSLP

[14] = target: T7, Low molecular weight phosphotyrosine protein phosphatase (Homo sapiens, UniProt P24666); assay type: functional; details: read-out: IC50_Mean;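 further: Dose-response confirmation assay measuring inhibition of LMPTP enzyme activity by fluorescence intensity read-out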
T7 sequence (P24666 whole entry): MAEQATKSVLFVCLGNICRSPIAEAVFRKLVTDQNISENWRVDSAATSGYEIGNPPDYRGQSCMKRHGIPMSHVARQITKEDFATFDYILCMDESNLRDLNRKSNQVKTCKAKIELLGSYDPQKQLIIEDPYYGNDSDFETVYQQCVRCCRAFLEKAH

## O=C(CSc1nnc(NC(=O)c2ccc3c(c2)OCO3)s1)NCc1ccco1
[1]
  AC50: 2.65 µM (active)

## Fc1ccc(NC(S)=Nc2cccc3cnccc23)cc1
[2]
  AC50: 9.44 µM (active)

## O=C(CCCC(=O)N(c1ccc2c(c1)OCCO2)C(C(=O)NC1CCCCC1)c1ccc(F)cc1)Nc1ccccn1 (configuration not stated)
[3]
  AC50: 6.87 µM (active)
[4]
  AC50: 4.52 µM (active)
[5]
  AC50: 42.5 µM (active)
[6]
  AC50: 31.9 µM (active)

## Cc1ccc(O)c(C2=Nc3ccccc3C2(C)C)c1
[7]
  IC50: 22.5 µM (active)
[8]
  IC50: 4.9 µM (active)
[9]
  IC50: 18.2 µM (active)
[10]
  IC50: 26.9 µM (active)
[11]
  AC50: 31.6 µM (active)

## Cn1c(C(=O)NCC2CCCO2)cc2c(=O)n(C)c3ccccc3c21 (configuration not stated)
[2]
  AC50: 13.4 µM (active)

## CCOc1cc(-c2nc3ccccc3s2)ccc1O
[2]
  AC50: 5.92 µM (active)
[12]
  IC50: 33.4 µM (active)

## Cc1nc2ccccc2nc(C)c1=NOCc1cccc(Cl)c1
[3]
  AC50: 10.3 µM (active)
[4]
  AC50: 13 µM (active)
[5]
  AC50: 11.6 µM (active)
[6]
  AC50: 0.421 µM (active)

## COc1ccc(F)cc1C(=O)C1CCCN(C(=O)c2ccc(C(C)=O)s2)C1 (configuration not stated)
[13]
  AC50: 1.06 µM (active)

## C[C@@]12C(=O)N(Cc3ccco3)CC(=O)N1[C@H]1c3ccccc3OC[C@@H]1[C@@H]2c1ccccc1
[3]
  AC50: 3.14 µM (active)
[4]
  AC50: 3.09 µM (active)
[5]
  AC50: 12.4 µM (active)

## CC(=O)c1c(C)[nH]c(C(=O)Nc2cccnc2)c1C
[13]
  AC50: 3 µM (active)

## C[C@@H]1CN([C@H](C)CO)C(=O)c2cc(C#Cc3cccnc3)cnc2O[C@H]1CN(C)S(C)(=O)=O
[13]
  AC50: 3.35 µM (active)

## CN(C)C(=O)C[C@@H]1C[C@H]2c3cc(NS(=O)(=O)c4ccc(F)cc4)ccc3O[C@H]2[C@H](CO)O1
[6]
  AC50: 3.41 µM (active)

## COc1ccc(C(=O)Nc2cccc(C(=O)N/N=C/c3ccc(OC)cc3OC)c2)cc1
[1]
  AC50: 1.79 µM (active)

## CN(C)c1ccc(/C=N/NC(=O)c2nnn(-c3nonc3N)c2COc2ccc(F)cc2)cc1
[14]
  IC50: 12 µM (active)
